Test results as given in patent US20230140290A1, “SALICYLAMIDE DERIVATIVES AND RELATED METHODS OF MAKING” (THE BOARD OF REGENTS OF THE UNIVERSITY OF TEXAS SY, priority 2020, published 2023).
Structures can show the parent of a compound that is named as a salt.

Tested on: HAdV5-GFP
Assay: Plaque assay (inhibition of HAdV plaque formation)
Format: cell-based, HAdV-5
Conditions: for inhibition at 10 µM: read-out: Plaque Assay (%) Inhibition (10 μM); for IC50: read-out: Plaque Assay IC50 (μM), HAdV5-GFP, low MOI, 293β5 cell line; for EC50: read-out: EC50 (plaque assay)
Experimental: Plaque Assay. […] When cells reached 80-90% confluency, they were infected with HAdV5-GFP (0.06 vp/cell) and rocked for 2 h at 37° C. After the incubation the inoculum was removed, and the cells were washed once with PBS.
Plaque Assay. Compounds were tested using low MOI infections (0.06 vp/cell) and at concentrations of 10 μM and in a dose-response assay ranging from 10 to 0.3 μM in a plaque assay. […] When cells reached 80-90% confluency, they were infected with HAdV5-GFP (0.06 vp/cell) and rocked for 2 h at 37° C. After the incubation the inoculum was removed, and the cells were washed once with PBS. […] The mixture also contained the compounds in concentrations ranging from 10 to 0.3 μM.

O=C(Nc1ccc([N+](=O)[O-])c(Cl)c1)c1cc(Cl)ccc1O [Compound 10, 5-Chloro-N-(3-chloro-4-nitrophenyl)-2-hydroxybenzamide]
inhibition at 10 µM: 100% | IC50: 1 µM

O=C(NCc1ccc(F)cc1F)c1cc(Cl)ccc1O [Compound 33, 5-Chloro-N-(2,4-difluorobenzyl)-2-hydroxybenzamide]
inhibition at 10 µM: 74.7 ± 6.9%

O=C(NCc1ccc(F)c(F)c1)c1cc(Cl)ccc1O [Compound 34, 5-Chloro-N-(3,4-difluorobenzyl)-2-hydroxybenzamide]
inhibition at 10 µM: 37.2 ± 23.4%

O=C(NCc1cccc(Cl)c1)c1cc(Cl)ccc1O [Compound 39, 5-Chloro-N-(3-chlorobenzyl)-2-hydroxybenzamide]
inhibition at 10 µM: 72 ± 1.5%

O=C(NCc1ccc(F)cc1)c1cc(Cl)ccc1O [Compound 40, 5-Chloro-N-(4-fluorobenzyl)-2-hydroxybenzamide]
inhibition at 10 µM: 72 ± 3%

CN(Cc1ccc(F)cc1)C(=O)c1cc(Cl)ccc1O [Compound 41, 5-Chloro-N-(4-fluorobenzyl)-2-hydroxy-N-methylbenzamide]
inhibition at 10 µM: 0%

O=C(NCc1ccccc1)c1cc(Cl)ccc1O [Compound 45, N-Benzyl-5-chloro-2-hydroxybenzamide]
inhibition at 10 µM: 12.7 ± 2.9%

COc1ccc([C@@H](C)NC(=O)c2cc(Cl)ccc2O)cc1 [Compound 50, (R)-5-Chloro-2-hydroxy-N-(1-(4-methoxyphenyl)ethyl)benzamide]
inhibition at 10 µM: 33.5 ± 14.8%

O=C(Cc1cc(Cl)ccc1O)Nc1ccc([N+](=O)[O-])cc1Cl [Compound 54, 2-(5-Chloro-2-hydroxyphenyl)-N-(2-chloro-4-nitrophenyl)acetamide]
inhibition at 10 µM: 0%

CC(C)C[C@H](NC(=O)c1cc(Cl)ccc1O)C(=O)Nc1ccc([N+](=O)[O-])cc1Cl [Compound 61, (S)-5-Chloro-N-(1-((2-chloro-4-nitrophenyl)amino)-4-methyl-1-oxopentan-2-yl)-2-hydroxybenzamide]
inhibition at 10 µM: 17.4 ± 12.3%

CSCC[C@H](NC(=O)c1cc(Cl)ccc1O)C(=O)Nc1ccc([N+](=O)[O-])cc1Cl [Compound 63, (S)-5-Chloro-N-(1-((2-chloro-4-nitrophenyl)amino)-4-(methylthio)-1-oxobutan-2-yl)-2-hydroxybenzamide]
inhibition at 10 µM: 34.8 ± 16.9%

CC(C)[C@H](NC(=O)c1cc(Cl)ccc1O)C(=O)Nc1ccc(C(F)(F)F)cc1Cl [Compound 66, (S)-5-Chloro-N-(1-((2-chloro-4-(trifluoromethyl)phenyl)amino)-3-methyl-1-oxobutan-2-yl)-2-hydroxybenzamide]
inhibition at 10 µM: 24.8 ± 12.3%

CS(=O)(=O)Nc1ccc(Cl)cc1C(=O)N[C@@H](Cc1ccccc1)C(=O)Nc1ccc([N+](=O)[O-])cc1Cl [Compound 71, (S)-5-Chloro-N-(1-((2-chloro-4-nitrophenyl)amino)-1-oxo-3-phenylpropan-2-yl)-2-(methylsulfonamido)benzamide]
inhibition at 10 µM: 88.9 ± 15.7%

Nc1ccc(NC(=O)c2cc(Cl)ccc2O)c(Cl)c1 [Compound 76, N-(4-Amino-2-chlorophenyl)-5-chloro-2-hydroxybenzamide]
inhibition at 10 µM: 0%

CC(=O)Nc1ccc(NC(=O)c2cc(Cl)ccc2O)c(Cl)c1 [Compound 77, N-(4-Acetylamino-2-chlorophenyl)-5-chloro-2-hydroxybenzamide]
inhibition at 10 µM: 0%

NCCNc1ccc(NC(=O)c2cc(Cl)ccc2O)c(Cl)c1 [Compound 123, N-(4-((2-Aminoethyl)amino)-2-chlorophenyl)-5-chloro-2-hydroxybenzamide hydrochloride]
inhibition at 10 µM: 19.4 ± 12.2%

O=C(Nc1ccc(NC2CCNCC2)cc1Cl)c1cc(Cl)ccc1O [Compound 125, 5-Chloro-N-(2-chloro-4-(piperidin-4-ylamino)phenyl)-2-hydroxybenzamide hydrochloride]
inhibition at 10 µM: 39.7 ± 13.5%

O=C(Nc1ccc(NCC2CCNCC2)cc1Cl)c1cc(Cl)ccc1O [Compound 127, 5-Chloro-N-(2-chloro-4-((piperidin-4-ylmethyl)amino)phenyl)-2-hydroxybenzamide]
inhibition at 10 µM: 20.6 ± 10.3%

CN1CCC(CNc2ccc(NC(=O)c3cc(Cl)ccc3O)c(Cl)c2)CC1 [Compound 128, 5-Chloro-N-(2-chloro-4-(((1-methylpiperidin-4-yl)methyl)amino)phenyl)-2-hydroxybenzamide]
inhibition at 10 µM: 0%

O=C(Nc1ccc(NCCN2CCOCC2)cc1Cl)c1cc(Cl)ccc1O [Compound 129, 5-Chloro-N-(2-chloro-4-((2-morpholinoethyl)amino)phenyl)-2-hydroxybenzamide]
inhibition at 10 µM: 1.4 ± 12.3%

O=C(Nc1ccc(NC2CCCC2)cc1Cl)c1ccccc1O [Compound 135, N-(2-Chloro-4-(cyclopentylamino)phenyl)-2-hydroxybenzamide]
inhibition at 10 µM: 77.5%

O=C(Nc1ccc(NC2CCCC2)cc1Cl)c1cccc(Cl)c1 [Compound 137, 3-Chloro-N-(2-chloro-4-(cyclopentylamino)phenyl)benzamide]
inhibition at 10 µM: 82.9%

COc1ccc(Cl)cc1C(=O)Nc1ccc(NC2CCCC2)cc1Cl [Compound 138, 5-Chloro-N-(2-chloro-4-(cyclopentylamino)phenyl)-2-methoxybenzamide]
inhibition at 10 µM: 78.9%

CN1CCC(Oc2ccc(Cl)cc2C(=O)Nc2ccc(NC3CCCC3)cc2Cl)CC1 [Compound 139, 5-Chloro-N-(2-chloro-4-(cyclopentylamino)phenyl)-2-((1-methylpiperidin-4-yl)oxy)benzamide]
inhibition at 10 µM: 0%

O=C(Cc1cc(Cl)ccc1O)Nc1ccc(NC2CCCC2)cc1Cl [Compound 146, 2-(5-Chloro-2-hydroxyphenyl)-N-(2-chloro-4-(cyclopentylamino)phenyl)acetamide]
inhibition at 10 µM: 85.8 ± 5.8%

O=C(NC1CCCCCC1)c1cc(Cl)ccc1O [Compound 158, 5-Chloro-N-cycloheptyl-2-hydroxybenzamide]
EC50: 4700 nM

O=C(NC1CCOCC1)c1cc(Cl)ccc1O [Compound 159, 5-Chloro-2-hydroxy-N-(tetrahydro-2H-pyran-4-yl)benzamide]
inhibition at 10 µM: 0%

C[C@H](NC(=O)c1cc(Cl)ccc1O)C1CCCCC1 [Compound 162, (S)-5-chloro-N-(1-cyclohexylethyl)-2-hydroxybenzamide]
EC50: 510 nM | inhibition at 10 µM: 100%

O=C(NCC1CCOCC1)c1cc(Cl)ccc1O [Compound 163, 5-Chloro-2-hydroxy-N-((tetrahydro-2H-pyran-4-yl)methyl)benzamide]
inhibition at 10 µM: 0%

O=C(NCCC1CCCCC1)c1cc(Cl)ccc1O [Compound 165, 5-Chloro-N-(2-cyclohexylethyl)-2-hydroxybenzamide]
EC50: 1000 nM | IC50: 1 ± 0.1 µM

CN1CCN(CCNC(=O)c2cc(Cl)ccc2O)CC1 [Compound 167, 5-Chloro-2-hydroxy-N-(2-(4-methylpiperazin-1-yl)ethyl)benzamide]
inhibition at 10 µM: 0%

O=C(NCCN1CCOCC1)c1cc(Cl)ccc1O [Compound 168, 5-Chloro-2-hydroxy-N-(2-morpholinoethyl)benzamide]
EC50: 3730 nM | inhibition at 10 µM: 0%

O=C(c1cc(Cl)ccc1O)N1CCCCC1 [Compound 171]
Plaque Assay (%) Inhibition (10 μM) (HAdV5-GFP, 10 μM, low MOI, 293β5 cell line): 0.00 ± 0.00%

CC(=O)N1CCN(C(=O)c2cc(Cl)ccc2O)CC1 [Compound 172, 1-(4-(5-Chloro-2-hydroxybenzoyl)piperazin-1-yl)ethanone]
inhibition at 10 µM: 0%
